Measurements from BindingDB's records for PubMed 33032085 (Guangzhou University of Chinese Medicine, 2021).
pIC50: −log10 of the molar value.

Assay: Inhibition of influenza A virus neuraminidase using 2-(4-methylumbelliferyl)-a-D-acetylneuraminic acid as substrate incubated for 30 mins by fluorescence based analysis

C=C1C[C@@H]2[C@@]3(C)CCC(=O)C(C)(C)[C@@H]3C(=O)C[C@@]2(C)[C@@]2(C(=O)OC)C(=O)[C@](C)(O)C(=O)[C@@]12C
pIC50: 7.74
